Measured values as given in patent US12134610B2, “Somatostatin subtype-2 receptor (SST2R) targeted therapeutics and uses thereof” (priority 2022, dated 2024).
pEC50: −log10 of the molar value. Read-outs that look alike come from different tables or passages of the source. Non-standard residues stand in square brackets, D forms with d. Residues, ends and D or L forms follow the SMILES beside them. *: point of attachment. X1 = Cc1cc(F)cc(-c2cnc(NCCNC(=O)CCOCCC(=O)*)c(-c3nc4ccc(Cl)cc4[nH]3)c2N2CCC(N)CC2)c1; Dolaproine = CO[C@@H]([C@@H]1CCCN1)[C@@H](C)C(=O)O; Dil = CC[C@H](C)[C@H](NC)[C@@H](CC(=O)O)OC; X2 = C[C@@H](N*)[C@@H](O)c1ccccc1; NMeV = CN[C@H](C(=O)O)C(C)C

Experiments:
Format in all cases: cell-based
[1] = molecular target: T1, human somatostatin receptor subtype 2 (Homo sapiens, UniProt P30874); assay: Functional cAMP assay for SSTR2 agonists (HTRF) in CHO-K1 cells; conditions: CHO-K1 cells stably expressing human SST2, 20 min; for pEC50: read-out: hSST2 cAMP Avg EC50; for EC50: hSST2 cAMP Avg EC50 (nM)
T1 construct: expressed in transfected cells
Method in brief: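 CHO-K1 cells stably expressing receptor, plated 4 days before assay, treated 20 min at 37° C. with compound (typically 0-10,000 nM final) plus IBMX and 1.6 μM NKH477 to raise cAMP. HTRF read, 665/620 nm ratio; cAMP from standard curve, EC50 fitted.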

SST2 = molecular target: T2, SST2 (Homo sapiens, UniProt P30874); assay: PathHunter CHO-K1 SST2 internalization assay; conditions: PathHunter CHO-K1 SST2, 90 min; for pEC50: read-out: Internalization EC50; for EC50: Internalization EC50 (nM)
T2 construct: host or cells: PathHunter CHO-K1 SST2 cells
Method in brief: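 PathHunter CHO-K1 SST2 cells, seeded and grown 48 h, were exposed to 11-point 1:3 dilutions of SMDC (top final 10 uM) for 90 min at 37 C, 5% CO2. Beta-Glo luminescence was read after 60 min at room temperature. Background-corrected duplicate means were fitted by four-parameter nonlinear regression to give IC50.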

[2] = system: NCI-H524 (ATCC) human small cell lung cancer cells
Method in brief: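 NCI-H524 cells (5,000/well) were exposed 24 h after plating to SMDC for 2 h, 11-point two-fold series from 1 uM. After washout they grew a further 70 h. Proliferation was read by CellTiter-Glo luminescence, % inhibition taken vs untreated control, and IC50 fitted by four-parameter nonlinear regression.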

[3] = 2 h treatment, washout, additional 70 h, read-out: H524 EC50

T2 sequence (P30874 whole entry): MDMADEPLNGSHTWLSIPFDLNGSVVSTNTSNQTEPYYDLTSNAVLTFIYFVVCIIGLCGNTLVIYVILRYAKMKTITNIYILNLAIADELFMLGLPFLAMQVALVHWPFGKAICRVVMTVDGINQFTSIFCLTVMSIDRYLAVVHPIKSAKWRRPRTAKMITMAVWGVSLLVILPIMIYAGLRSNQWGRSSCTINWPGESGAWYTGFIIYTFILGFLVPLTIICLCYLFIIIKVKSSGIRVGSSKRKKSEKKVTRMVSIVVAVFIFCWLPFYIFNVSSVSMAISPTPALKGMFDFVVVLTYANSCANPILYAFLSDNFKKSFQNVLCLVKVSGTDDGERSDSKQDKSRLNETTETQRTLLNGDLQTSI
T1 sequence (P30874 whole entry): as above

Row | SMILES | pEC50 [1] | pEC50 (SST2) | pEC50 ([2]; 2 h) | EC50 [1] [nM] | EC50 (SST2) [nM] | pEC50 [2, 3]
1 | CC[C@H](C)[C@@H]([C@@H](CC(=O)N1CCC[C@H]1[C@H](OC)[C@@H](C)C(=O)N[C@H](C)[C@@H](O)c1ccccc1)OC)N(C)C(=O)[C@@H](NC(=O)[C@H](C(C)C)N(C)C(=O)OCc1ccc(NC(=O)[C@H](C)NC(=O)[C@@H](NC(=O)CCOCCNCCC(=O)NCCNc2ncc(-c3cc(C)cc(F)c3)c(N3CCC(N)CC3)c2-c2nc3ccc(Cl)cc3[nH]2)C(C)C)c(O[C@@H]2O[C@H](C(=O)O)[C@@H](O)[C@H](O)[C@H]2O)c1)C(C)C [Compound 156] | 9.62 | 7.60 | 7.12 | – | – | –
2 | CC[C@@]1(O)C(=O)OCc2c1cc1n(c2=O)Cc2c-1nc1cc(F)c(C)c3c1c2[C@@H](NC(=O)OCc1ccc(NC(=O)[C@H](CCCNC(N)=O)NC(=O)[C@@H](NC(=O)CN2CCN(CC(=O)O)CCN(CC(=O)NCCOCCC(=O)NCCNc4ncc(-c5cc(C)cc(F)c5)c(N5CCC(N)CC5)c4-c4nc5ccc(Cl)cc5[nH]4)CC2)C(C)C)cc1)CC3 [Compound 72] | – | – | – | 0.28 | 3.9 | 7.51
3 | CC[C@H](C)[C@@H]([C@@H](CC(=O)N1CCC[C@H]1[C@H](OC)[C@@H](C)C(=O)N[C@H](C)[C@@H](O)c1ccccc1)OC)N(C)C(=O)[C@@H](NC(=O)[C@H](C(C)C)N(C)C(=O)OCc1ccc(NC(=O)[C@H](C)NC(=O)[C@@H](NC(=O)[C@H](CCC(N)=O)NC(=O)CCOCCC(=O)NCCNc2ncc(-c3cc(C)cc(F)c3)c(N3CCC(N)CC3)c2-c2nc3ccc(Cl)cc3[nH]2)C(C)C)c(O[C@@H]2O[C@H](C(=O)O)[C@@H](O)[C@H](O)[C@H]2O)c1)C(C)C [Compound 146] | 10.14 | 8.68 | 8.32 | – | – | –
4 | CC[C@H](C)[C@@H]([C@@H](CC(=O)N1CCC[C@H]1[C@H](OC)[C@@H](C)C(=O)N[C@H](C)[C@@H](O)c1ccccc1)OC)N(C)C(=O)[C@@H](NC(=O)[C@H](C(C)C)N(C)C(=O)OCc1ccc(NC(=O)[C@H](C)NC(=O)[C@@H](NC(=O)[C@H](CCC(=O)O)NC(=O)CCOCCC(=O)NCCNc2ncc(-c3cc(C)cc(F)c3)c(N3CCC(N)CC3)c2-c2nc3ccc(Cl)cc3[nH]2)C(C)C)cc1C(=O)NCCN)C(C)C [Compound 116] | 10.00 | 8.41 | 8.18 | – | – | –
5 | CC[C@H](C)[C@@H]([C@@H](CC(=O)N1CCC[C@H]1[C@H](OC)[C@@H](C)C(=O)N[C@H](C)[C@@H](O)c1ccccc1)OC)N(C)C(=O)[C@@H](NC(=O)[C@H](C(C)C)N(C)C(=O)OCc1ccc(NC(=O)[C@H](CCCNC(N)=O)NC(=O)[C@@H](NC(=O)[C@H](CCC(N)=O)NC(=O)CCOCCC(=O)NCCNc2ncc(-c3cc(C)cc(F)c3)c(N3CCC(N)CC3)c2-c2nc3ccc(Cl)cc3[nH]2)C(C)C)cc1C(=O)NC)C(C)C [Compound 54] | 9.77 | 8.00 | 7.77 | – | – | –
6 | COc1cc2cc(c1Cl)N(C)C(=O)C[C@H](OC(=O)[C@@H](C)N(C)C(=O)CCSSCCOCCOCCOCCC(=O)NCCNc1ncc(-c3cc(C)cc(F)c3)c(N3CCC(N)CC3)c1-c1nc3ccc(Cl)cc3[nH]1)[C@]1(C)OC1[C@@H](C)C1C[C@@](O)(NC(=O)O1)[C@H](OC)/C=C/C=C(\C)C2 (stereo partly drawn) [Compound 19, (2S,5S,6S,16E,18E,20R,21S)-11-chloro-21-hydroxy-12,20-dimethoxy-2,5,9,16-tetramethyl-8,23-dioxo-4,24-dioxa-9,22-diazatetracyclo[19.3.1.1^10,14.0^3,5]hexacosa-10,12,14(26),16,18-pentaen-6-yl (2R)-2-{1-[(2-{[4-(4-aminopiperidin-1-yl)-3-(6-chloro-1H-1,3-benzodiazol-2-yl)-5-(3-fluoro-5-methylphenyl)pyridin-2-yl]amino}ethyl)carbamoyl]-N-methyl-3,6,9-trioxa-12,13-dithiahexadecan-16-amido}propanoate] | 9.36 | 8.15 | 7.70 | – | – | –
7 | CC[C@H](C)[C@@H]([C@@H](CC(=O)N1CCC[C@H]1[C@H](OC)[C@@H](C)C(=O)N[C@H](C)[C@@H](O)c1ccccc1)OC)N(C)C(=O)[C@@H](NC(=O)[C@H](C(C)C)N(C)C(=O)OCc1ccc(NC(=O)[C@H](C)NC(=O)[C@@H](NC(=O)CCOCCOCCC(=O)NCCNc2ncc(-c3cc(C)cc(F)c3)c(N3CCC(N)CC3)c2-c2nc3ccc(Cl)cc3[nH]2)C(C)C)c(O[C@@H]2O[C@H](C(=O)O)[C@@H](O)[C@H](O)[C@H]2O)c1)C(C)C [Compound 149] | 10.00 | 8.28 | 8.30 | – | – | –
8 | CC[C@@]1(O)C(=O)OCc2c1cc1n(c2=O)Cc2c-1nc1cc(F)c(C)c3c1c2[C@@H](NC(=O)OCc1ccc(NC(=O)[C@H](CCCNC(N)=O)NC(=O)[C@@H](NC(=O)[C@H](CCC(=O)O)NC(=O)CCOCCC(=O)NCCNc2ncc(-c4cc(C)cc(F)c4)c(N4CCC(N)CC4)c2-c2nc4ccc(Cl)cc4[nH]2)C(C)C)cc1)CC3 [Compound 71] | – | – | – | 0.29 | 1.6 | 6.57
9 | CC[C@H](C)[C@@H]([C@@H](CC(=O)N1CCC[C@H]1[C@H](OC)[C@@H](C)C(=O)N[C@H](C)[C@@H](O)c1ccccc1)OC)N(C)C(=O)[C@@H](NC(=O)[C@H](C(C)C)N(C)C(=O)OCc1ccc(NC(=O)[C@H](CCCNC(N)=O)NC(=O)[C@@H](NC(=O)CCOCCC(=O)NCCNc2ncc(-c3cc(C)cc(F)c3)c(N3CCC(N)CC3)c2-c2nc3ccc(Cl)cc3[nH]2)C(C)C)c(O[C@@H]2O[C@H](CO)[C@@H](O)[C@H](O)[C@H]2O)c1)C(C)C [Compound 134] | 9.74 | 8.34 | 8.42 | – | – | –
10 | CC[C@@]1(O)C(=O)OCc2c1cc1n(c2=O)Cc2c-1nc1cc(F)c(C)c3c1c2[C@@H](NC(=O)OCc1ccc(NC(=O)[C@H](CCCNC(N)=O)NC(=O)[C@@H](NC(=O)CCOCCC(=O)NCCNc2ncc(-c4cc(C)cc(F)c4)c(N4CCC(N)CC4)c2-c2nc4ccc(Cl)cc4[nH]2)C(C)C)c(O[C@@H]2O[C@H](C(=O)O)[C@@H](O)[C@H](O)[C@H]2O)c1)CC3 [Compound 126] | – | – | – | 0.29 | 3.4 | 7.00
11 | CC[C@H](C)[C@@H]([C@@H](CC(=O)N1CCC[C@H]1[C@H](OC)[C@@H](C)C(=O)N[C@H](C)[C@@H](O)c1ccccc1)OC)N(C)C(=O)[C@@H](NC(=O)[C@H](C(C)C)N(C)C(=O)OCc1ccc(NC(=O)[C@H](CCCNC(N)=O)NC(=O)[C@@H](NC(=O)CCCC(=O)N(C)CC(=O)N(C)CC(=O)N(C)CC(=O)NCCNc2ncc(-c3cc(C)cc(F)c3)c(N3CCC(N)CC3)c2-c2nc3ccc(Cl)cc3[nH]2)C(C)C)c(O[C@@H]2O[C@H](C(=O)O)[C@@H](O)[C@H](O)[C@H]2O)c1)C(C)C [Compound 142] | 9.60 | 8.36 | 7.04 | – | – | –
12 | CC[C@H](C)[C@@H]([C@@H](CC(=O)N1CCC[C@H]1[C@H](OC)[C@@H](C)C(=O)N[C@H](C)[C@@H](O)c1ccccc1)OC)N(C)C(=O)[C@@H](NC(=O)[C@H](C(C)C)N(C)C(=O)OCc1ccc(NC(=O)[C@H](CCCNC(N)=O)NC(=O)[C@@H](NC(=O)CCCC(=O)N(C)CC(=O)NCCNc2ncc(-c3cc(C)cc(F)c3)c(N3CCC(N)CC3)c2-c2nc3ccc(Cl)cc3[nH]2)C(C)C)c(O[C@@H]2O[C@H](C(=O)O)[C@@H](O)[C@H](O)[C@H]2O)c1)C(C)C [Compound 141] | 9.66 | 8.64 | 7.96 | – | – | –
13 | CC[C@H](C)[C@@H]([C@@H](CC(=O)N1CCC[C@H]1[C@H](OC)[C@@H](C)C(=O)N[C@H](C)[C@@H](O)c1ccccc1)OC)N(C)C(=O)[C@@H](NC(=O)[C@H](C(C)C)N(C)C(=O)OCc1ccc(NC(=O)[C@H](CCCNC(N)=O)NC(=O)[C@@H](NC(=O)[C@H](CCC(=O)O)NC(=O)CCOCCOCCOCCOCCC(=O)NCCNc2ncc(-c3cc(C)cc(F)c3)c(N3CCC(N)CC3)c2-c2nc3ccc(Cl)cc3[nH]2)C(C)C)cc1C(=O)NC)C(C)C [Compound 53] | 9.80 | 7.89 | 7.00 | – | – | –
14 | CC[C@H](C)[C@@H]([C@@H](CC(=O)N1CCC[C@H]1[C@H](OC)[C@@H](C)C(=O)N[C@H](C)[C@@H](O)c1ccccc1)OC)N(C)C(=O)[C@@H](NC(=O)[C@H](C(C)C)N(C)C(=O)OCc1ccc(NC(=O)[C@H](CCCNC(N)=O)NC(=O)[C@@H](NC(=O)CN2CCN(CC(=O)O)CCN(CC(=O)NCCOCCOCCOCCOCCC(=O)NCCNc3ncc(-c4cc(C)cc(F)c4)c(N4CCC(N)CC4)c3-c3nc4ccc(Cl)cc4[nH]3)CC2)C(C)C)cc1)C(C)C [Compound 39] | 9.92 | 7.73 | 7.44 | – | – | –
15 | CC[C@@]1(O)C(=O)OCc2c1cc1n(c2=O)Cc2c-1nc1cc(F)c(C)c3c1c2[C@@H](NC(=O)OCc1ccc(NC(=O)[C@H](CCCNC(N)=O)NC(=O)[C@@H](NC(=O)CCOCCOCCOCCOCCC(=O)NCCNc2ncc(-c4cc(C)cc(F)c4)c(N4CCC(N)CC4)c2-c2nc4ccc(Cl)cc4[nH]2)C(C)C)cc1C(=O)NCCN)CC3 [Compound 91] | – | – | – | 0.18 | 5.6 | 6.72
16 | CC[C@H](C)[C@@H]([C@@H](CC(=O)N1CCC[C@H]1[C@H](OC)[C@@H](C)C(=O)N[C@H](C)[C@@H](O)c1ccccc1)OC)N(C)C(=O)[C@@H](NC(=O)[C@H](C(C)C)N(C)C(=O)CNC(=O)[C@H](Cc1ccccc1)NC(=O)CNC(=O)CNC(=O)CCOCCC(=O)NCCNc1ncc(-c2cc(C)cc(F)c2)c(N2CCC(N)CC2)c1-c1nc2ccc(Cl)cc2[nH]1)C(C)C [Compound 34] (X1-GGFG[NMeV]V[Dil][Dolaproine]-X2) | – | – | – | 0.16 | 21.8 | 5.50
